What was measured:
[1] = tested on: GFRα1-overexpressing MG-63 clone #4; test: Colony-forming assay in the presence of cisplatin; assay type: cell-based, human; settings: cisplatin 20 μM 10 days; 3-MA (10 μM), Baf (100 nM), CQ (30 μg/ml)
Excerpt: FIG. 3. […] Scale bar, 20 μm. […] Scale bar, 20 μm. […] Scale bar, 20 μm.

MG-63/GFRα1 tumors = test: MG-63/GFRα1 xenograft in BALB/c nude mice; assay type: in vivo; settings: CQ 60 mg/kg, cisplatin 3 mg/kg, once a week
Procedure: FIG. 5. GFRα1-mediated autophagy promotes chemoresistance and tumor growth in vivo. (a) BALB/c nude mice (n =40) were injected with MG-63 cells that were transfected with either control or GFRα1 expressing vector. Tumor volume was measured every 3 or 4 days. Data are shown as mean±SEM. ** p<0.05. (b) BALB/c nude mice (n=20) were injected with MG-63 cells that were transfected with either control or GFRα1 shRNA. Tumor volume was measured every 3 or 4 days. Data are shown as mean±SEM. ** p<0.05. (c) Tumors that were generated from mice injected with MG-63 cells containing GFRα1 expressing vector were directly injected with PBS, CQ, cisplatin, or cisplatin+CQ. Tumor volume was measured every 4 days. Data are shown as mean±SEM. ** p<0.05 vs PBS, CQ, or cisplatin-treated tumors. (d) Left, representative images of immunofluorescence staining of HMGB1 in a section from tumors generated from mice injected with MG-63 cells containing GFRα1 expressing vector and then treated with PBS, CQ, cisplatin, or cisplatin+CQ. Right, quantitative analysis of percentage of cytoplasmic HMGB1-positive cells in HMGB1-positive tumors. The values are represented as a mean±s.d.m. (n=3). ** denotes p<0.05 by t-test. (e) Left, representative images of TUNEL-positive cells in a section from tumors generated from mice injected with MG-63 cells containing GFRα1 expressing vector and then treated with PBS, CQ, cisplatin, or cisplatin+CQ. Right, quantitative analysis of percentage of TUNEL-positive cells in HMGB1-positive tumors. The values are represented as a mean±s.d.m. (n=3). ** denotes p<0.05 by t-test. (0 Survival rate of mice injected with MG-63 cells containing GFRα1 expressing vector and then treated with either cisplatin or cisplatin+CQ. (g) Representative images of immunohistochemical staining of GFRα1 in a section from human osteosarcoma patient before and after cisplatin treatment. (h) Representative images of immunofluorescence staining of GFRα1 and HMGB1 in a section from human osteosarcoma patient before and after cisplatin treatment.
Tumor formation in nude mice. The mice used in this study were 6-week-old female BALB/c nude mice purchased from Orient Bio Inc. (Seongnam, Korea). […] The tumor size was measured with a caliper every 3 or 4 days. […] The tumor size was measured with a caliper every 4 days. […] were calculated from caliper measurements of tumor dimensions in mm using the formula for a prolate ellipsoid: (L×W^2)/2 where L is the longer of the two-measurements.
Statistical analysis. Survival data was analyzed by the Kaplan-Meier and log-rank test with GraphPad Prism v5.04 (GraphPad Software, La Jolla Calif.). Plating efficiency (PE, %)=(Number of colonies counted/Number of cells plated)×100. […] All values are expressed as the mean±standard deviation (SD). […]

[2] = tested on: Src/AMPK signaling in MG-63 cells; test: Immunoblot of Src/AMPK/mTOR signaling; assay type: cell-based, human; settings: then cisplatin 20 μM 24 hr; for LC3-II expression: inhibitor
Procedure: FIG. 4. GFRα1 regulates autophagy by Src/AMPK signaling in osteosarcoma cells. (a-b) Immunoblot analysis of osteosarcoma cell lysates with antibodies specific for GFRα1, p-Src, Src, p-AMPK, AMPK, p-mTOR, mTOR, p-p70 S6Kinase, Beclin 1, HMGB1, LC3, and β-actin. (a) MG-63 and cells were treated with cisplatin (20 μM) for 24 hr. (b) Control and GFRα1-deficient MG-63 cells were treated with cisplatin (20 μM) for 24 hr. (c-e) Immunoblot analysis of osteosarcoma cell lysates with antibodies specific for GFRα1, p-Src, Src, p-AMPK, AMPK, LC3, and β-actin. (c) Control and Src-deficient MG-63 cells were treated with cisplatin (20 μM) for 24 hr. (d) MG-63 cells were cultured in the presence or absence of PP1 (5 μM) and then treated with cisplatin (20 μM) for 24 hr. (e) MG-63 cells were cultured in the presence or absence of Compound C and then treated with cisplatin (20 μM) for 24 hr. (f) Cell viability of MG-63 cells after cisplatin treatment in the presence of PP1. MG-63 cells were cultured with DMSO or PP1 (2, 5 μM) and then treated with cisplatin (20 μM) for 24 hr. Cell viability was measured using the WST-1 assay. The values are represented as a mean±s.d.m. (n=3). ** denotes p<0.05 by t-test. (g) Cell viability of MG-63 cells after cisplatin treatment in the presence of Compound C. MG-63 cells were cultured with DMSO or Compound C (5, 10 μM) and then treated with cisplatin (20 μM) for 24 hr. Cell viability was measured using the WST-1 assay. The values are represented as a mean±s.d.m. (n=3). ** denotes p<0.05 by t-test.
(§1) Immunoblotting. Cells were washed with PBS and lysed in RIPA Buffer (Pierce, Rockford, Ill.). The protein content was determined using a dye-binding microassay (Bio-Rad, Hercules, Calif.), and 10-50 μg protein per lane was electrophoresed on 4-12% SDS polyacrylamide gels. Proteins were blotted onto Hybond ECL membranes (Amersham Pharmacia Biotech, Piscataway, N.J.). Two protein ladders were used for molecular weight determination (GenDEPOT, Barker, Tex.). The blotted proteins were detected using an enhanced chemiluminescence detection system (iNtRON, Seoul, Korea). Data were quantified and analyzed with Image-J software.

[3] = tested on: GFRα1-deficient MG-63 and U-2 OS cells; test: WST-1 cell viability of GFRα1-deficient (siRNA) osteosarcoma cells; assay type: cell-based, human; settings: GFRα1 siRNA 48 h, then agent 24 h
Procedure: FIG. 6. Cell viability of GFRα1-deficient osteosarcoma cells after treatment of chemotherapeutic agents. MG-63 and U-2 OS cells were transfected with either control siRNA or GFRα1 siRNA for 48 h and then treated with different concentrations of doxorubicin, cisplatin, or methotrexate for 24 h. Cell viability was measured using the WST-1 assay. The values are represented as a mean±s.d.m. (n=3). ** denotes P<0.05 by t-test. (a) MG-63 cells. (b) U-2 OS cells.
Small interfering RNA (siRNA)-based Experiments. Human GFRα1 siRNA, Beclin 1 siRNA, HMGB1 siRNA, AMPK siRNA, c-Src siRNA, NFκB p50 siRNA, APE siRNA and Negative (control) siRNA were purchased from Santa Cruz Biotechnology. Cell lines were transiently transfected with siRNA duplexes using Lipofectamine® RNAiMAX (Life Technologies) according to manufacturer's instructions.
Cell viability assays. WST-1 cell viability assay reagent was purchased from Roche. Equal numbers of cells were seeded in triplicate wells in 48-well plates and maintained in growth medium containing 10% FBS). Cells were cultured with PBS, GDNF (50 ng/mL), GDNF (50 ng/ml)+cisplatin (20 μM), or cisplatin (20 μM) in the presence of serum for 24 hr. Cells were also preincubated with inhibitors (3-MA, PP1, Compound C, Baf and CQ) for 1 hr before stimulating with PBS, GDNF, GDNF+cisplatin, or cisplatin. WST-1 reagent was then treated to the cells at the indicated times and incubated for 2 hr at 37° C. Cell viability was determined by measuring the absorbance after adding WST-1. The spectrophotometric absorbance of the samples was measured using an Ultra Multifunctional Microplate Reader (Tecan, Durham, N.C.) at 450 nm. Experiments were done at least in triplicate using separate cultures.

[4] = tested on: GFRα1 expression in MG-63 and U-2 OS cells; test: Immunoblot of GFRα1 expression after chemotherapeutic agents; assay type: cell-based, human; settings: doxorubicin 5 μM, cisplatin 20 μM, methotrexate 1 mM, 24 hr
Procedure: FIG. 1. Cisplatin induces GFRα1 expression in osteosarcoma cells. (a-c) Immunoblot analysis of osteosarcoma cell lysates with antibodies specific for GFRα1 and β-actin. (a) MG-63 and U-2 OS cells were treated with doxorubicin (5 μM), cisplatin (20 μM), or methotrexate (1 mM) for 24 hr. Immunoblot analysis of GFRα1 (left) and quantification of GFRα1 expression (right) after treatment of chemotherapeutic agents. (b) MG-63 and U-2 OS cells were treated with different concentrations of cisplatin for 24 hr. (c) MG-63 and U-2 OS cells were treated with cisplatin (20 μM) and collected at the indicated time. (d and e) Quantitative real-time PCR of GFRα1 mRNA expression after cisplatin treatment. Representative images (top) and quantitative analysis (bottom) of GFRα1 mRNA expression. The values are presented as a mean±s.d.m (n=3). ** denotes p<0.05 by t-test. (d) MG-63 and U-2 OS cells were treated with different concentrations of cisplatin for 24 hr. (e) MG-63 and U-2 OS cells were treated with cisplatin (20 μM) and collected at the indicated time.
as §1

Structure (SMILES) | LC3-II expression [2] | cell proliferation of GFRα1-deficient cells compared to control cells [3] | level of GFRα1 expression [4] | other results
CCN(CC)CCCC(C)Nc1ccnc2cc(Cl)ccc12 (centres unmarked) [CQ, chloroquine] | – | – | – | number of colonies [1]: effectively reduced; tumor progression (MG-63/GFRα1 tumors): allowed the tumors to survive; tumor volume compared to PBS-treated mice (MG-63/GFRα1 tumors): decreased
c1cc(-c2cnn3cc(-c4ccc(OCCN5CCCCC5)cc4)cnc23)ccn1 [compound C] | decreased | – | – | Src phosphorylation ([2]; Compound C): no effect
COc1cccc2c1C(=O)c1c(O)c3c(c(O)c1C2=O)C[C@@](O)(C(=O)CO)C[C@@H]3O[C@H]1C[C@H](N)[C@H](O)[C@H](C)O1 [doxorubicin] | – | little or no effect | no or little effect | –
CN(Cc1cnc2nc(N)nc(N)c2n1)c1ccc(C(=O)N[C@@H](CCC(=O)O)C(=O)O)cc1 [methotrexate] | – | little or no effect | no or little effect | –
Cc1ccc(-c2nn(C(C)(C)C)c3ncnc(N)c23)cc1 [PP1] | decreased | – | – | AMPK phosphoryation ([2]; PP1 5 μM): decreased

Reference: US20180171411A1, “GFRalpha1 AS A BIOMARKER FOR CISPLATIN-INDUCED CHEMORESISTANCE AND METASTASIS” (THE BOARD OF REGENTS OF THE UNIVERSITY OF TEXAS SYSTEM, priority 2015, published 2018)
